Measured values reported in PubChem BioAssay (NCI).
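Growth conditions: 96-well plates. Treatment: test compound, 48 hours, 5 concentrations. Analysis: linear interpolation between bracketing concentrations; unreached endpoints set to highest concentration. GI50 marks 50% less growth. TGI marks complete inhibition of growth.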

Experiments:
Assay in all cases: NCI-60 cell line screen, 48 h
HCT-116 colon = test system: HCT-116 colon
ACHN renal = test system: ACHN renal
SNB-19 CNS = test system: SNB-19 CNS
NCI-H23 lung = test system: NCI-H23 lung
SNB-75 CNS = test system: SNB-75 CNS
OVCAR-8 ovarian = test system: OVCAR-8 ovarian
MCF7 breast = test system: MCF7 breast
HS 578T breast = test system: HS 578T breast
786-0 renal = test system: 786-0 renal
NCI/ADR-RES ovarian = test system: NCI/ADR-RES ovarian
HL-60(TB) leukemia = test system: HL-60(TB) leukemia
MDA-MB-231 breast = test system: MDA-MB-231 breast
A549 NSCLC = test system: A549 NSCLC
SR leukemia = test system: SR leukemia
EKVX NSCLC = test system: EKVX NSCLC
BT-549 breast = test system: BT-549 breast
U251 CNS = test system: U251 CNS
SF-539 CNS = test system: SF-539 CNS
PC-3 prostate = test system: PC-3 prostate
NCI-H522 lung = test system: NCI-H522 lung
DU-145 prostate = test system: DU-145 prostate
SF-268 CNS = test system: SF-268 CNS
MOLT-4 leukemia = test system: MOLT-4 leukemia
OVCAR-3 ovarian = test system: OVCAR-3 ovarian
LOX IMVI melanoma = test system: LOX IMVI melanoma
RPMI-8226 leukemia = test system: RPMI-8226 leukemia
COLO 205 colon = test system: COLO 205 colon
NCI-H226 lung = test system: NCI-H226 lung
A498 renal = test system: A498 renal
CCRF-CEM leukemia = test system: CCRF-CEM leukemia
SK-MEL-28 melanoma = test system: SK-MEL-28 melanoma
HOP-92 NSCLC = test system: HOP-92 NSCLC
UACC-62 melanoma = test system: UACC-62 melanoma
SK-MEL-5 melanoma = test system: SK-MEL-5 melanoma
SW-620 colon = test system: SW-620 colon
OVCAR-5 ovarian = test system: OVCAR-5 ovarian
KM12 colon = test system: KM12 colon
CAKI-1 renal = test system: CAKI-1 renal
TK-10 renal = test system: TK-10 renal
M14 melanoma = test system: M14 melanoma
SF-295 CNS = test system: SF-295 CNS
UACC-257 melanoma = test system: UACC-257 melanoma
HOP-62 NSCLC = test system: HOP-62 NSCLC
T-47D breast = test system: T-47D breast
HT29 colon = test system: HT29 colon
NCI-H460 lung = test system: NCI-H460 lung
MALME-3M melanoma = test system: MALME-3M melanoma
K-562 leukemia = test system: K-562 leukemia
SK-OV-3 ovarian = test system: SK-OV-3 ovarian
MDA-MB-435 = test system: MDA-MB-435
OVCAR-4 ovarian = test system: OVCAR-4 ovarian
HCT-15 colon = test system: HCT-15 colon
UO-31 renal = test system: UO-31 renal
IGROV1 ovarian = test system: IGROV1 ovarian
HCC-2998 colon = test system: HCC-2998 colon
SK-MEL-2 melanoma = test system: SK-MEL-2 melanoma
RXF 393 renal = test system: RXF 393 renal
SN12C renal = test system: SN12C renal

## Cc1cc(I)cc(CN(C)CCN(C)C)c1O
HCT-116 colon
  GI50: 24.9 µM
  TGI: > 100 µM
ACHN renal
  GI50: 39.6 µM
  TGI: > 100 µM
SNB-19 CNS
  GI50: 64.3 µM
  TGI: > 100 µM
NCI-H23 lung
  GI50: 33.1 µM
  TGI: > 100 µM
SNB-75 CNS
  GI50: 21.9 µM
  TGI: 59.9 µM
OVCAR-8 ovarian
  GI50: 60 µM
  TGI: > 100 µM
MCF7 breast
  GI50: 25.6 µM
  TGI: 66.1 µM
HS 578T breast
  GI50: 26 µM
  TGI: > 69 µM
786-0 renal
  GI50: 40.1 µM
  TGI: > 100 µM
NCI/ADR-RES ovarian
  GI50: 38.1 µM
  TGI: > 100 µM
HL-60(TB) leukemia
  GI50: 19.7 µM
  TGI: 55.9 µM
MDA-MB-231 breast
  GI50: 26.7 µM
  TGI: > 72.3 µM
A549 NSCLC
  GI50: 46.6 µM
  TGI: > 100 µM
SR leukemia
  GI50: 5.44 µM
  TGI: 50.4 µM
EKVX NSCLC
  GI50: 61.5 µM
  TGI: > 100 µM
BT-549 breast
  GI50: 26.8 µM
  TGI: > 78.3 µM
U251 CNS
  GI50: 39.2 µM
  TGI: > 100 µM
SF-539 CNS
  GI50: 30.7 µM
  TGI: > 82.8 µM
PC-3 prostate
  GI50: 29.1 µM
  TGI: > 100 µM
NCI-H522 lung
  GI50: 36.8 µM
  TGI: > 100 µM
DU-145 prostate
  GI50: 44.4 µM
  TGI: > 100 µM
SF-268 CNS
  GI50: 20.7 µM
  TGI: > 73 µM
MOLT-4 leukemia
  GI50: 26.6 µM
  TGI: > 68.6 µM
OVCAR-3 ovarian
  GI50: 41.9 µM
  TGI: > 100 µM
LOX IMVI melanoma
  GI50: 24.4 µM
  TGI: > 73.1 µM
RPMI-8226 leukemia
  GI50: 15.5 µM
  TGI: 51.6 µM
COLO 205 colon
  GI50: 17.3 µM
  TGI: 33.3 µM
NCI-H226 lung
  GI50: 75.3 µM
  TGI: > 100 µM
A498 renal
  GI50: 33.8 µM
  TGI: > 77.9 µM
CCRF-CEM leukemia
  GI50: < 0.0354 µM
SK-MEL-28 melanoma
  GI50: 18.2 µM
  TGI: 33.4 µM
HOP-92 NSCLC
  GI50: 17.1 µM
  TGI: 67.3 µM
UACC-62 melanoma
  GI50: 17.8 µM
  TGI: 33 µM
SK-MEL-5 melanoma
  GI50: 16.5 µM
  TGI: 30.3 µM
SW-620 colon
  GI50: 39.5 µM
  TGI: > 100 µM
OVCAR-5 ovarian
  GI50: 55.7 µM
  TGI: > 100 µM
KM12 colon
  GI50: 46.3 µM
  TGI: > 100 µM
CAKI-1 renal
  GI50: 26.7 µM
  TGI: > 80.4 µM
TK-10 renal
  GI50: 33.1 µM
  TGI: > 100 µM
M14 melanoma
  GI50: 16 µM
  TGI: 31.8 µM
SF-295 CNS
  GI50: 20.5 µM
  TGI: 56.8 µM
UACC-257 melanoma
  GI50: 39.3 µM
  TGI: > 62 µM
HOP-62 NSCLC
  GI50: 37.8 µM
  TGI: > 100 µM
T-47D breast
  GI50: 28.8 µM
  TGI: > 100 µM
HT29 colon
  GI50: 19.4 µM
  TGI: 41.9 µM
NCI-H460 lung
  GI50: 26.7 µM
  TGI: > 100 µM
MALME-3M melanoma
  GI50: 18.9 µM
  TGI: 36.8 µM
K-562 leukemia
  GI50: 24.9 µM
  TGI: > 64.3 µM
SK-OV-3 ovarian
  GI50: 76.6 µM
  TGI: > 100 µM
MDA-MB-435
  GI50: 18.8 µM
  TGI: 48.9 µM
OVCAR-4 ovarian
  GI50: 52.2 µM
  TGI: > 100 µM
HCT-15 colon
  GI50: 28.5 µM
  TGI: 76.5 µM
UO-31 renal
  GI50: 40.7 µM
  TGI: > 100 µM
IGROV1 ovarian
  GI50: 27.7 µM
  TGI: 82.7 µM
HCC-2998 colon
  GI50: 16.3 µM
  TGI: 32.1 µM
SK-MEL-2 melanoma
  GI50: 22.1 µM
  TGI: 44.2 µM
RXF 393 renal
  GI50: 25.5 µM
  TGI: > 84.8 µM
SN12C renal
  GI50: 47.4 µM
  TGI: > 100 µM
